Source: US9789089B2 (Gilead Sciences, Inc., priority 2013, dated 2017)
Read-outs that look alike come from different tables or passages of the source.

How the values were obtained:
HIV-IIIb = assay: Test A: Antiviral Assay in MT4 Cells; type: cell-based, HIV-1; settings: read-out: % inhibition at 6 μM
Experimental: Test A: Antiviral Assay in MT4 Cells
(§1) For the antiviral assay, 40 μL of 1× test concentration of 3-fold serially diluted compound in culture medium with 10% FBS was added to each well of a 384-well plate (10 concentrations) in quadruplicate. MT-4 cells were next mixed with HIV-IIIb at an m.o.i of 0.003 for 1 hour, after which time 35 μL of virus/cell mixture (2000 cells) was immediately added to each well containing 40 μL of diluted compound. The plates were then incubated at 37° C. for 5 days. After 5 days of incubation, 25 μl of 2× concentrated CellTiter-Glo™ Reagent (catalog #G7571, Promega Biosciences, Inc., Madison, Wis.) was added to each well containing MT-4 cells. Cell lysis was carried out by incubating at room temperature for 10 min and then chemiluminescence was read.

[1] = Test B: Cytotoxicity assay; type: cell-based; settings: human, uninfected MT-4 cells, same protocol as Test A, CellTiter-Glo
Experimental: as §1
Test B:Cytotoxicity assay
Compound cytotoxicity and the corresponding CC50 values was determined using the same protocol as described in the antiviral assay (Test A) except that uninfected cells were used.

[2] = Human immunodeficiency virus 1, IIIB, MT4, 120 h
[3] = Human immunodeficiency virus 1, MT4, 120 h, percent inhibition of virus-induced cell killing at 6 μM drug concentration, from the dose response curve, MT-4 cells infected with HIV-IIIb, 5 days

O=C(Cn1nc(C(F)(F)F)c2c1CCCC2)NC(Cc1ccccc1)c1cnnn1-c1ccccc1 (stereo not drawn) [Compound 9E, N-(2-phenyl-1-(1-phenyl-1H-1,2,3-triazol-5-yl)ethyl)-2-(3-(trifluoromethyl)-4,5,6,7-tetrahydro-1H-indazol-1-yl)acetamide]
inhibition at 6 µM (HIV-IIIb; [2]): 0%
CC50 at 5 days [1]: 13.2 µM

Cc1nnc(C(Cc2ccccc2)NC(=O)Cc2c[nH]c3ccc(O)cc23)n1-c1ccccc1 (stereo not drawn) [Compound 10G, 2-(5-hydroxy-1H-indol-3-yl)-N-(1-(5-methyl-4-phenyl-4H-1,2,4-triazol-3-yl)-2-phenylethyl)acetamide]
inhibition at 6 µM (HIV-IIIb; [3]): 51%
CC50 at 5 days [1]: > 53.2 µM

Cc1nnc(C(Cc2ccccc2)NC(=O)Cn2nc(C(F)(F)F)c3c2CCCC3)n1-c1ccccc1 (stereo not drawn) [Compound 11, N-(1-(5-methyl-4-phenyl-4H-1,2,4-triazol-3-yl)-2-phenylethyl)-2-(3-(trifluoromethyl)-4,5,6,7-tetrahydro-1H-indazol-1-yl)acetamide]
inhibition at 6 µM (HIV-IIIb; [3]): 76%
CC50 at 5 days [1]: > 53 µM

O=C(Cc1c[nH]c2ccc(O)cc12)NC(Cc1ccccc1)c1cnnn1-c1ccccc1 (stereo not drawn) [Compound 12, 2-(5-hydroxy-1H-indol-3-yl)-N-(2-phenyl-1-(1-phenyl-1H-1,2,3-triazol-5-yl)ethyl)acetamide]
inhibition at 6 µM (HIV-IIIb; [3]): 4%
CC50 at 5 days [1]: > 53 µM

Cc1ccccc1-c1scnc1C(Cc1cc(F)cc(F)c1)NC(=O)Cn1nc(C(F)(F)F)c2c1CCCC2 (stereo not drawn) [Compound 14, N-(2-(3,5-difluorophenyl)-1-(5-(o-tolyl)thiazol-4-yl)ethyl)-2-(3-(trifluoromethyl)-4,5,6,7-tetrahydro-1H-indazol-1-yl)acetamide]
inhibition at 6 µM (HIV-IIIb; [3]): 60%
CC50 at 5 days [1]: 11.3 µM

Cc1nc(-c2ccccc2)c(C(Cc2ccccc2)NC(=O)Cc2c[nH]c3ccc(O)cc23)s1 (stereo not drawn) [Compound 15C, 2-(5-hydroxy-1H-indol-3-yl)-N-(1-(2-methyl-4-phenylthiazol-5-yl)-2-phenylethyl)acetamide]
inhibition at 6 µM (HIV-IIIb; [3]): 0%
CC50 at 5 days [1]: 35 µM

Cc1nc(-c2ccccc2)c([C@H](Cc2ccccc2)NC(=O)Cn2nc(C(F)(F)F)c3c2CCCC3)s1 [Compound 16, (S)—N-(1-(2-methyl-4-phenylthiazol-5-yl)-2-phenylethyl)-2-(3-(trifluoromethyl)-4,5,6,7-tetrahydro-1H-indazol-1-yl)acetamide]
inhibition at 6 µM (HIV-IIIb; [3]): 0%
CC50 at 5 days [1]: 51.9 µM

O=C(Cc1c[nH]c2ccc(F)cc12)N[C@@H](Cc1cc(F)cc(F)c1)c1nnc(-c2ccccc2)o1 [Compound 17B, (S)—N-(2-(3,5-difluorophenyl)-1-(5-phenyl-1,3,4-oxadiazol-2-yl)ethyl)-2-(5-fluoro-1H-indol-3-yl)acetamide]
inhibition at 6 µM (HIV-IIIb; [2]): 0%
CC50 at 5 days [1]: > 53 µM

O=C(Cc1c[nH]c2ccc(F)cc12)N[C@@H](Cc1ccccc1)c1nc(-c2ccccc2)no1 [Compound 18B, (S)-2-(5-fluoro-1H-indol-3-yl)-N-(2-phenyl-1-(3-phenyl-1,2,4-oxadiazol-5-yl)ethyl)acetamide]
inhibition at 6 µM (HIV-IIIb; [2]): 4%
CC50 at 5 days [1]: > 53 µM

O=C(Cc1c[nH]c2ccc(F)cc12)NC(Cc1cc(F)cc(F)c1)c1cnc(-c2ccc(Cl)cc2)o1 (stereo not drawn) [Compound 19F, N-(1-(2-(4-chlorophenyl)oxazol-5-yl)-2-(3,5-difluorophenyl)ethyl)-2-(5-fluoro-1H-indol-3-yl)acetamide]
inhibition at 6 µM (HIV-IIIb; [3]): 0%
CC50 at 5 days [1]: 9.14 µM

O=C(Cn1nc(C(F)(F)F)c2c1CCCC2)NC(Cc1cc(F)cc(F)c1)c1cnc(-c2ccc(Cl)cc2)o1 (stereo not drawn) [Compound 20, N-(1-(2-(4-chlorophenyl)oxazol-5-yl)-2-(3,5-difluorophenyl)ethyl)-2-(3-(trifluoromethyl)-4,5,6,7-tetrahydro-1H-indazol-1-yl)acetamide]
inhibition at 6 µM (HIV-IIIb; [2]): 1%
CC50 at 5 days [1]: 12.2 µM

COc1ccc2[nH]cc(CC(=O)NC(Cc3cc(F)cc(F)c3)c3cnc(-c4ccc(Cl)cc4)o3)c2n1 (stereo not drawn) [Compound 21, N-(1-(2-(4-chlorophenyl)oxazol-5-yl)-2-(3,5-difluorophenyl)ethyl)-2-(5-methoxy-1H-pyrrolo[3,2-b]pyridin-3-yl)acetamide]
inhibition at 6 µM (HIV-IIIb; [3]): 2%
CC50 at 5 days [1]: 25.4 µM

O=C(Cc1c[nH]c2ccc(O)nc12)NC(Cc1cc(F)cc(F)c1)c1cnc(-c2ccc(Cl)cc2)o1 (stereo not drawn) [Compound 22, N-(1-(2-(4-chlorophenyl)oxazol-5-yl)-2-(3,5-difluorophenyl)ethyl)-2-(5-hydroxy-1H-pyrrolo[3,2-b]pyridin-3-yl)acetamide]
inhibition at 6 µM (HIV-IIIb; [3]): 1%
CC50 at 5 days [1]: 50.7 µM

Cc1cc2ncn(CC(=O)NC(Cc3cc(F)cc(F)c3)c3cnc(-c4ccc(Cl)cc4)o3)c2cc1C (stereo not drawn) [Compound 23, N-(1-(2-(4-chlorophenyl)oxazol-5-yl)-2-(3,5-difluorophenyl)ethyl)-2-(5,6-dimethyl-1H-benzo[d]imidazol-1-yl)acetamide]
inhibition at 6 µM (HIV-IIIb; [2]): 0%
CC50 at 5 days [1]: 12 µM

O=C(Cc1c[nH]c2ccc(O)cc12)NC(Cc1cc(F)cc(F)c1)c1cnc(-c2ccc(Cl)cc2)o1 (stereo not drawn) [Compound 24, N-(1-(2-(4-chlorophenyl)oxazol-5-yl)-2-(3,5-difluorophenyl)ethyl)-2-(5-hydroxy-1H-indol-3-yl)acetamide]
inhibition at 6 µM (HIV-IIIb; [3]): 5%
CC50 at 5 days [1]: 13.6 µM

O=C(Cc1c[nH]c2ccc(F)cc12)N[C@@H](Cc1cc(F)cc(F)c1)c1nocc1-c1ccc(Cl)cc1 [Compound 25I, (S)—N-(1-(4-(4-chlorophenyl)isoxazol-3-yl)-2-(3,5-difluorophenyl)ethyl)-2-(5-fluoro-1H-indol-3-yl)acetamide]
inhibition at 6 µM (HIV-IIIb; [3]): 68%
CC50 at 5 days [1]: 9.89 µM

O=C(Cn1nc(C(F)(F)F)c2c1CCCC2)N[C@@H](Cc1cc(F)cc(F)c1)c1nocc1-c1ccc(Cl)cc1 [Compound 27, (S)—N-(1-(4-(4-chlorophenyl)isoxazol-3-yl)-2-(3,5-difluorophenyl)ethyl)-2-(3-(trifluoromethyl)-4,5,6,7-tetrahydro-1H-indazol-1-yl)acetamide]
inhibition at 6 µM (HIV-IIIb; [3]): 28%
CC50 at 5 days [1]: 6.17 µM

Cn1cnc(C(Cc2cc(F)cc(F)c2)NC(=O)Cc2c[nH]c3ccc(F)cc23)c1-c1ccc(Cl)cc1 (stereo not drawn) [Compound 29G, N-(1-(5-(4-chlorophenyl)-1-methyl-1H-imidazol-4-yl)-2-(3,5-difluorophenyl)ethyl)-2-(5-fluoro-1H-indol-3-yl)acetamide]
inhibition at 6 µM (HIV-IIIb; [2]): 44%
CC50 at 5 days [1]: 10.8 µM

Cn1cnc(C(Cc2cc(F)cc(F)c2)NC(=O)Cn2nc(C(F)(F)F)c3c2CCCC3)c1-c1ccc(Cl)cc1 (stereo not drawn) [Compound 30, N-(1-(5-(4-chlorophenyl)-1-methyl-1H-imidazol-4-yl)-2-(3,5-difluorophenyl)ethyl)-2-(3-(trifluoromethyl)-4,5,6,7-tetrahydro-1H-indazol-1-yl)acetamide]
inhibition at 6 µM (HIV-IIIb; [3]): 69%
CC50 at 5 days [1]: 11 µM

Cn1cnc(C(Cc2cc(F)cc(F)c2)NC(=O)Cc2c[nH]c3ccc(C(F)(F)F)cc23)c1-c1ccc(Cl)cc1 (stereo not drawn) [Compound 32, N-(1-(5-(4-chlorophenyl)-1-methyl-1H-imidazol-4-yl)-2-(3,5-difluorophenyl)ethyl)-2-(5-(trifluoromethyl)-1H-indol-3-yl)acetamide]
inhibition at 6 µM (HIV-IIIb; [3]): 0%
CC50 at 5 days [1]: 11.9 µM

O=C(Cc1c[nH]c2ccc(O)cc12)NC(Cc1cc(F)cc(F)c1)c1ncoc1-c1ccc(Cl)cc1 (stereo not drawn) [Compound 34, N-(1-(5-(4-chlorophenyl)oxazol-4-yl)-2-(3,5-difluorophenyl)ethyl)-2-(5-hydroxy-1H-indol-3-yl)acetamide]
inhibition at 6 µM (HIV-IIIb; [3]): 0%
CC50 at 5 days [1]: 22.1 µM
